Measurements: PubChem BioAssay AID248 (DTP/NCI, 2004)
Where “and” joins values, the source holds several entries; their conditions need not be identical. Equal values may be shown once. Toxic doses and inconclusive results are not listed. Rule as the data show it: active = T/C of 150% or more; inactive = T/C below 125%.

System: L1210 leukemia ip in BDF1 mice, survival T/C
Assay: NCI In Vivo Anticancer Drug Screen. Data for tumor model L1210 Leukemia (intraperitoneal) in B6D2F1 (BDF1) mice
Conditions: endpoint: mean survival time, higher = longer survival
In short: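 In this screen, tumor-bearing mice given compound are compared to those given vehicle, and their survival values are reported as a treated-to-control quotient.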

[1] = dose: 200.0 mg/kg/injection, schedule: Q04DX003 (ip), vehicle: saline
[2] = dose: 400.0 mg/kg/injection, schedule: Q04DX003 (ip), vehicle: saline
[3] = dose: 100.0 mg/kg/injection, schedule: Q01DX001 (ip), vehicle: carboxymethylcellulose (CMC)
[4] = dose: 100.0 mg/kg/injection, schedule: Q01DX009 (ip), vehicle: carboxymethylcellulose (CMC)
[5] = dose: 100.0 mg/kg/injection, schedule: Q04DX002 (ip), vehicle: carboxymethylcellulose (CMC)
[6] = dose: 100.0 mg/kg/injection, schedule: Q04DX003 (ip), vehicle: carboxymethylcellulose (CMC)
[7] = dose: 200.0 mg/kg/injection, schedule: Q01DX001 (ip), vehicle: carboxymethylcellulose (CMC)
[8] = dose: 200.0 mg/kg/injection, schedule: Q01DX009 (ip), vehicle: carboxymethylcellulose (CMC)
[9] = dose: 200.0 mg/kg/injection, schedule: Q04DX002 (ip), vehicle: carboxymethylcellulose (CMC)
[10] = dose: 200.0 mg/kg/injection, schedule: Q04DX003 (ip), vehicle: carboxymethylcellulose (CMC)
[11] = dose: 400.0 mg/kg/injection, schedule: Q01DX001 (ip), vehicle: carboxymethylcellulose (CMC)
[12] = dose: 400.0 mg/kg/injection, schedule: Q01DX009 (ip), vehicle: carboxymethylcellulose (CMC)
[13] = dose: 400.0 mg/kg/injection, schedule: Q04DX002 (ip), vehicle: carboxymethylcellulose (CMC)
[14] = dose: 400.0 mg/kg/injection, schedule: Q04DX003 (ip), vehicle: carboxymethylcellulose (CMC)
[15] = dose: 100.0 mg/kg/injection, schedule: Q01DX001 (ip), vehicle: saline
[16] = dose: 200.0 mg/kg/injection, schedule: Q01DX001 (ip), vehicle: saline
[17] = dose: 400.0 mg/kg/injection, schedule: Q01DX001 (ip), vehicle: saline
[18] = dose: 50.0 mg/kg/injection, schedule: Q01DX001 (ip), vehicle: carboxymethylcellulose (CMC)
[19] = dose: 50.0 mg/kg/injection, schedule: Q04DX003 (ip), vehicle: saline
[20] = dose: 100.0 mg/kg/injection, schedule: Q04DX002 (ip), vehicle: saline with Tween-80
[21] = dose: 200.0 mg/kg/injection, schedule: Q04DX002 (ip), vehicle: saline with Tween-80
[22] = dose: 400.0 mg/kg/injection, schedule: Q04DX002 (ip), vehicle: saline with Tween-80
[23] = dose: 100.0 mg/kg/injection, schedule: Q04DX003 (ip), vehicle: saline
[24] = dose: 100.0 mg/kg/injection, schedule: Q01DX001 (ip), vehicle: saline with Tween-80
[25] = dose: 100.0 mg/kg/injection, schedule: Q04DX002 (ip), vehicle: Klucel (hydroxypropylcellulose) (HPC)
[26] = dose: 200.0 mg/kg/injection, schedule: Q04DX002 (ip), vehicle: Klucel (hydroxypropylcellulose) (HPC)
[27] = dose: 400.0 mg/kg/injection, schedule: Q04DX002 (ip), vehicle: Klucel (hydroxypropylcellulose) (HPC)

Measured: T/C

Nc1ccccc1SC1CC(=O)N(c2ccc(I)cc2)C1=O (stereo not drawn)
inactive: dose: 25.0 mg/kg/injection, schedule: Q04DX003 (ip), vehicle: other 88 % of control | dose: 50.0 mg/kg/injection, schedule: Q04DX003 (ip), vehicle: other 91 % of control | dose: 100.0 mg/kg/injection, schedule: Q01DX009 (ip), vehicle: other 94 % of control | dose: 100.0 mg/kg/injection, schedule: Q04DX003 (ip), vehicle: other 93 % of control | dose: 200.0 mg/kg/injection, schedule: Q01DX009 (ip), vehicle: other 102 % of control | [1] 88 % of control | dose: 400.0 mg/kg/injection, schedule: Q01DX009 (ip), vehicle: other 93 % of control | [2] 86 % of control

O=C(Nc1ccc2ccccc2c1)c1ccc2c(c1)C(=O)OC2=O
inactive: [3] 97 % of control and 100 % of control | [4] 97 % of control and 98 % of control | [5] 96 % of control and 103 % of control | [6] 100 % of control and 91 % of control | [7] 93 % of control and 100 % of control | [8] 96 % of control and 100 % of control | [9] 99 % of control and 86 % of control | [10] 92 % of control and 91 % of control | [11] 93 % of control and 97 % of control | [12] 100 % of control and 104 % of control | [13] 95 % of control and 90 % of control | [14] 88 % of control and 89 % of control

O=S(=O)(/C(=C\c1ccccc1)c1ccccc1)C(Cl)c1ccccc1 (stereo not drawn)
inactive: [15] 96 % of control | [16] 110 % of control | [17] 95 % of control

CC12CCC(C1)C(C)(C)C2OC(=O)c1ccccc1C(=O)O (stereo not drawn)
inactive: [18] 103 % of control | [3] 113 % of control | [7] 102 % of control | [11] 103 % of control

CC1(C)N=C(N)N=C(N)N1c1cccc(OCCOc2cccc(NC(=O)CBr)c2)c1
inactive: dose: 5.0 mg/kg/injection, schedule: Q01DX001 (ip), vehicle: saline 98 % of control | dose: 10.0 mg/kg/injection, schedule: Q01DX001 (ip), vehicle: saline 102 % of control | dose: 10.0 mg/kg/injection, schedule: Q01DX009 (ip), vehicle: other 105 % of control | dose: 20.0 mg/kg/injection, schedule: Q01DX001 (ip), vehicle: saline 93 % of control | dose: 20.0 mg/kg/injection, schedule: Q01DX009 (ip), vehicle: other 98 % of control | dose: 40.0 mg/kg/injection, schedule: Q01DX001 (ip), vehicle: saline 96 % of control

Brc1ccc(C[n+]2ccccc2)cc1
inactive: dose: 12.5 mg/kg/injection, schedule: Q04DX003 (ip), vehicle: saline 98 % of control | dose: 18.75 mg/kg/injection, schedule: Q01DX009 (ip), vehicle: saline 93 % of control | dose: 25.0 mg/kg/injection, schedule: Q04DX003 (ip), vehicle: saline 97 % of control | dose: 37.5 mg/kg/injection, schedule: Q01DX009 (ip), vehicle: saline 91 % of control | [19] 105 % of control | dose: 75.0 mg/kg/injection, schedule: Q04DX003 (ip), vehicle: saline 92 % of control

CC(C)(C)OOC(=O)CCCl
inactive: [20] 93 % of control | [21] 101 % of control | [22] 101 % of control

CC1=C/C(=N\N2CCOCC2)C(C(O)(C(F)(F)F)C(F)(F)F)C(C)(C)C1 (stereo not drawn)
inactive: [23] 98 % of control | [1] 98 % of control | [2] 96 % of control

O=[N+]([O-])c1ccc(N/N=C/C(c2ccccc2)c2ccsc2)c([N+](=O)[O-])c1 (stereo not drawn)
inactive: [19] 104 % of control | [24] 97 % of control | [23] 106 % of control | dose: 200.0 mg/kg/injection, schedule: Q01DX001 (ip), vehicle: saline with Tween-80 96 % of control | [1] 104 % of control

Cc1cccc(NC(=O)COc2ccc(C)cc2C)c1
inactive: [25] 103 % of control | [26] 92 % of control | [27] 95 % of control

COc1ccc2c3c1OC1C=CC(O)C4C(C2)N(C)CCC314 (stereo not drawn)
inactive: [15] 98 % of control | [16] 89 % of control

CN(C)c1ccccc1C#N
inactive: [4] 93 % of control and 103 % of control | [5] 108 % of control | [6] 106 % of control | [8] 98 % of control and 104 % of control | [9] 94 % of control | [10] 101 % of control | [12] 113 % of control | [13] 115 % of control | [14] 98 % of control

CCc1c(C)nnn1-c1ccccc1
inactive: dose: 75.0 mg/kg/injection, schedule: Q01DX001 (ip), vehicle: saline 94 % of control | dose: 150.0 mg/kg/injection, schedule: Q01DX001 (ip), vehicle: saline 91 % of control

O=C(CN(Cc1ccccc1)Cc1ccccc1)c1ccccc1
inactive: dose: 100.0 mg/kg/injection, schedule: Q04DX003 (ip), vehicle: DMSO 103 % of control

CC1(C)CCCC2(C)C(=O)C3CCC2C31 (stereo not drawn)
inactive: dose: 100.0 mg/kg/injection, schedule: Q01DX001 (ip), vehicle: Klucel (hydroxypropylcellulose) (HPC) 98 % of control | dose: 200.0 mg/kg/injection, schedule: Q01DX001 (ip), vehicle: Klucel (hydroxypropylcellulose) (HPC) 91 % of control | dose: 400.0 mg/kg/injection, schedule: Q01DX001 (ip), vehicle: Klucel (hydroxypropylcellulose) (HPC) 91 % of control

Cc1ccc(NC(=O)NCCCOc2ccc(N3C(N)=NC(N)=NC3(C)C)cc2Cl)cc1S(=O)(=O)F
inactive: dose: 50.0 mg/kg/injection, schedule: Q01DX001 (ip), vehicle: saline 93 % of control | [15] 98 % of control | [16] 97 % of control

CN=C(NC)c1ccc(NC(=O)c2cc(OC)cc(C(=O)Nc3ccc(C(=NC)NC)cc3)c2)cc1
inactive: dose: 3.75 mg/kg/injection, schedule: Q01DX Z (ip), vehicle: saline 100 % of control | dose: 7.5 mg/kg/injection, schedule: Q01DX Z (ip), vehicle: saline 98 % of control | dose: 15.0 mg/kg/injection, schedule: Q01DX Z (ip), vehicle: saline 98 % of control

NCc1ccc(F)cc1
inactive: dose: 50.0 mg/kg/injection, schedule: Q01DX009 (ip), vehicle: saline 102 % of control | dose: 100.0 mg/kg/injection, schedule: Q01DX009 (ip), vehicle: saline 95 % of control | [23] 100 % of control | dose: 200.0 mg/kg/injection, schedule: Q01DX009 (ip), vehicle: saline 95 % of control | [1] 92 % of control

CC(=Nc1cccc2ccccc12)c1c(O)cc(C)oc1=O
inactive: dose: 100.0 mg/kg/injection, schedule: Q01DX009 (ip), vehicle: Klucel (hydroxypropylcellulose) (HPC) 100 % of control | [25] 98 % of control | dose: 200.0 mg/kg/injection, schedule: Q01DX009 (ip), vehicle: Klucel (hydroxypropylcellulose) (HPC) 95 % of control | [26] 98 % of control | dose: 400.0 mg/kg/injection, schedule: Q01DX009 (ip), vehicle: Klucel (hydroxypropylcellulose) (HPC) 92 % of control | [27] 95 % of control

[O-][n+]1onc2ccccc21
inactive: [24] 97 % of control

CC(=O)Nc1ccc(S(=O)(=O)Nc2ccc(N(CCCl)CCCl)cc2)cc1
inactive: dose: 50.0 mg/kg/injection, schedule: Q04DX002 (ip), vehicle: saline with Tween-80 107 % of control | [20] 110 % of control | [21] 107 % of control | [22] 110 % of control

O=C(O)c1ccncc1C(=O)O
inactive: [18] 87 % of control | [3] 90 % of control | [7] 87 % of control

NC(=O)C(Cc1ccc(O)cc1)N(CCO)CCO (stereo not drawn)
inactive: [15] 101 % of control | [16] 101 % of control | [17] 104 % of control
